Laboratory results: patent US12479830B2, “Homopiperazinyl and homopiperidinyl quinazolin-4(3H)-one derivatives having multimodal activity against pain” (ESTEVE PHARMACEUTICALS, S.A., priority 2019, dated 2025)

Assays:
[1] = target: Human α2δ-1 subunit of Cav2.2 calcium channel (Homo sapiens, UniProt P54289); assay: Human α2δ-1 subunit of Cav2.2 calcium channel assay ([3H]-gabapentin binding); settings: binding to the α2δ-1 subunit of voltage-gated calcium channels, expressed as Ki class; + also covers inhibition between 1% and 50%
Human α2δ-1 subunit of Cav2.2 calcium channel, sequence (P54289 25-1103): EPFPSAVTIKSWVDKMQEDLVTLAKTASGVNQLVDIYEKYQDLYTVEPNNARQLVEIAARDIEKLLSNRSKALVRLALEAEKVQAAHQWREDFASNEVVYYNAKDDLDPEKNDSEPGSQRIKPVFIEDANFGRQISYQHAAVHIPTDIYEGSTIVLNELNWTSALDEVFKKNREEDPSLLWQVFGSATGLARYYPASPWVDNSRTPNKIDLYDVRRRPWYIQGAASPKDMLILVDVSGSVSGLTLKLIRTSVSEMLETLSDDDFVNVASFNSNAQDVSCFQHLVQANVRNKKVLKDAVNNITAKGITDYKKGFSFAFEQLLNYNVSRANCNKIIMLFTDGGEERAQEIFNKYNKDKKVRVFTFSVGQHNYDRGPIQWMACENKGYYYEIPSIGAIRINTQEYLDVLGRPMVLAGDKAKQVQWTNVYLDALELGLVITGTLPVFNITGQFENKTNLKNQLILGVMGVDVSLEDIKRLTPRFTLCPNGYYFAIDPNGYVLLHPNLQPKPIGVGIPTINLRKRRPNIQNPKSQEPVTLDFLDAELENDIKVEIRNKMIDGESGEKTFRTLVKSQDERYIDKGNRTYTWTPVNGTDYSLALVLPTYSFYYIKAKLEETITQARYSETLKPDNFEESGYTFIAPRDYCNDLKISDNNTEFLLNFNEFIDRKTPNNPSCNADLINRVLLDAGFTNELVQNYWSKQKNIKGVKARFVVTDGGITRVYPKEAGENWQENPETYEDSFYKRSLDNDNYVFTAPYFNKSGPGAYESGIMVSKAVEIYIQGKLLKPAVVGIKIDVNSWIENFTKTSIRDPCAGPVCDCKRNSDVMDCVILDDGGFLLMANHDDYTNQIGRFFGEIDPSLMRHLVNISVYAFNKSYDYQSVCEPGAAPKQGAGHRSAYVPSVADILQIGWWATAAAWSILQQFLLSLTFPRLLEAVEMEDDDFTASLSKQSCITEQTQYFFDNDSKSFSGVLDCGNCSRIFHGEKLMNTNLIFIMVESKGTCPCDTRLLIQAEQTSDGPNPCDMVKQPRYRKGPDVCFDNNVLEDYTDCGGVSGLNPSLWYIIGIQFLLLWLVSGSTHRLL
Procedure: Human α2δ-1 Subunit of Cav2.2 Calcium Channel Assay
Human α2δ-1 enriched membranes (2.5 μg) were incubated with 15 nM of radiolabeled [^3H]-Gabapentin in assay buffer containing Hepes-KOH 10 mM. pH 7.4. NSB (non specific binding) was measured by adding 10 μM pregabalin. The binding of the test compound was measured at either one concentration (% inhibition at 1 or 10 μM) or five different concentrations to determine affinity values (Ki). After 60 min incubation at 27° C., binding reaction was terminated by filtering through Multiscreen GF/C (Millipore) presoaked in 0.5% polyethyleneimine in Vacuum Manifold Station, followed by 3 washes with ice-cold filtration buffer containing 50 mM Tris-HCl, pH 7.4. Filter plates were dried at 60° C. for 1 h and 30 μL of scintillation cocktail were added to each well before radioactivity reading. Readings were performed in a Trilux 1450 Microbeta radioactive counter (Perkin Elmer).

[2] = target: T1, Human σ1 receptor (Homo sapiens, UniProt Q99720); assay: Human σ1 receptor radioligand assay ([3H](+)-pentazocine binding); settings: binding to the σ1 receptor, expressed as Ki class; + also covers inhibition between 1% and 50%
T1 construct: expressed in transfected cells; host or cells: HEK-293
T1 sequence (Q99720 whole entry): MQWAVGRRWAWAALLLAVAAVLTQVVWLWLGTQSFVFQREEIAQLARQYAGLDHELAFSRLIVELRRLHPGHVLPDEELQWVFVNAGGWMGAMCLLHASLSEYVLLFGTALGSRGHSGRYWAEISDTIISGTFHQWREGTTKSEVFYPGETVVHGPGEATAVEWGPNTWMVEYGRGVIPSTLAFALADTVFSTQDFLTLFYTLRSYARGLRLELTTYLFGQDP
Procedure: Human σ1 Receptor Radioligand Assay
Transfected HEK-293 membranes (7 μg) were incubated with 5 nM of [^3H](+)-pentazocine in assay buffer containing Tris-HCl 50 mM at pH 8. NBS (non-specific binding) was measured by adding 10 μM haloperidol. The binding of the test compound was measured at either one concentration (% inhibition at 1 or 10 μM) or five different concentrations to determine affinity values (Ki). Plates were incubated at 37° C. for 120 minutes. After the incubation period, the reaction mix was then transferred to MultiScreen HTS, FC plates (Millipore), filtered and plates were washed 3 times with ice-cold 10 mM Tris-HCL (pH7.4). Filters were dried and counted at approximately 40% efficiency in a MicroBeta scintillation counter (Perkin-Elmer) using EcoScint liquid scintillation cocktail.

Ki [1] | Ki [2] | Compound
< 0.5 µM | > 1 µM | CCCC(c1nc2ccc(O)cc2c(=O)n1CC)N1CCCN(C)CC1 (stereo not shown) [Example 203, 3-Ethyl-6-hydroxy-2-(1-(4-methyl-1,4-diazepan-1-yl)butyl)quinazolin-4(3H)-one]
< 0.5 µM | 0.5 to 1 µM | CCC[C@H](c1nc2cc(F)c(F)cc2c(=O)n1CC)N1CCN[C@H](C)CC1 [Example 241, 3-ethyl-6,7-difluoro-2-((R)-1-((R)-5-methyl-1,4-diazepan-1-yl)butyl)quinazolin-4(3H)-one]
< 0.5 µM | < 0.5 µM | CCCC(c1nc2ccc(Br)cc2c(=O)n1CCC)N1CCCN(CC)CC1 (stereo not shown) [Example 20, 6-bromo-2-(1-(4-ethyl-1,4-diazepan-1-yl)butyl)-3-propylquinazolin-4(3H)-one]
> 5 µM | > 1 µM | CCC[C@@H](c1nc2ncc(F)cc2c(=O)n1CC1CC1)N1CCN[C@H](C)CC1 [Example 193, 3-(cyclopropylmethyl)-6-fluoro-2-((S)-1-((R)-5-methyl-1,4-diazepan-1-yl)butyl)pyrido[2,3-d]pyrimidin-4(3H)-one]
> 5 µM | > 1 µM | CCCC(c1nc2cccnc2c(=O)n1CC)N1CCCN(C)CC1 (stereo not shown) [Example 86, 3-ethyl-2-(1-(4-methyl-1,4-diazepan-1-yl)butyl)pyrido[3,2-d]pyrimidin-4(3H)-one]
0.5 to 5 µM | < 0.5 µM | CCCC(c1nc2ccc(Br)cc2c(=O)n1CC)N1CCCN(CCc2ccccc2)CC1 (stereo not shown) [Example 5, 6-bromo-3-ethyl-2-(1-(4-phenethyl-1,4-diazepan-1-yl)butyl)quinazolin-4(3H)-one]
> 5 µM | > 1 µM | CCC[C@@H](c1nc2ccc(Br)cc2c(=O)n1CC)N1CCN(C)C[C@@H](C)C1 [Example 38, 6-bromo-2-((S)-1-((R)-4,6-dimethyl-1,4-diazepan-1-yl)butyl)-3-ethylquinazolin-4(3H)-one]
> 5 µM | > 1 µM | CCC[C@@H](c1nc2ccc(Br)cc2c(=O)n1CC)N1CCCN[C@@H](C)C1 [Example 140, 6-bromo-3-ethyl-2-((S)-1-((S)-3-methyl-1,4-diazepan-1-yl)butyl)quinazolin-4(3H)-one]
< 0.5 µM | < 0.5 µM | CCCC(c1nc2ccc(F)cc2c(=O)n1CC(C)C)N1CCCN(CC)CC1 (stereo not shown) [Example 50, 2-(1-(4-ethyl-1,4-diazepan-1-yl)butyl)-6-fluoro-3-isobutylquinazolin-4(3H)-one]
< 0.5 µM | > 1 µM | CCCC(c1nc2ncc(F)cc2c(=O)n1CC1CC1)N1CCCN(C)CC1 (stereo not shown) [Example 184, 3-(cyclopropylmethyl)-6-fluoro-2-(1-(4-methyl-1,4-diazepan-1-yl)butyl)pyrido[2,3-d]pyrimidin-4(3H)-one]
0.5 to 5 µM | < 0.5 µM | CCCC(c1nc2ccc(Br)c(Cl)c2c(=O)n1CC)N1CCCN(C)CC1 (stereo not shown) [Example 56, 6-bromo-5-chloro-3-ethyl-2-(1-(4-methyl-1,4-diazepan-1-yl)butyl)quinazolin-4(3H)-one]
< 0.5 µM | < 0.5 µM | CCC[C@H](c1nc2cc(Cl)c(Cl)cc2c(=O)n1CC)N1CCN(C)C[C@H](C)C1 [Example 131, 6,7-Dichloro-2-((R)-1-((S)-4,6-dimethyl-1,4-diazepan-1-yl)butyl)-3-ethylquinazolin-4(3H)-one]
< 0.5 µM | > 1 µM | CCCC(c1nc2cc(F)c(Cl)cc2c(=O)n1CC)N1CCCNCC1 (stereo not shown) [Example 90, 2-(1-(1,4-diazepan-1-yl)butyl)-6-chloro-3-ethyl-7-fluoroquinazolin-4(3H)-one]
< 0.5 µM | > 1 µM | CCC[C@H](c1nc2cc(F)c(F)cc2c(=O)n1CC)N1CCCN[C@H](C)C1 [Example 261, 3-ethyl-6,7-difluoro-2-((R)-1-((R)-3-methyl-1,4-diazepan-1-yl)butyl)quinazolin-4(3H)-one]
< 0.5 µM | < 0.5 µM | CCC[C@H](c1nc2ccc(Cl)cc2c(=O)n1CCC)N1CCCN(C)CC1 [Example 159, (R)-6-Chloro-2-(1-(4-methyl-1,4-diazepan-1-yl)butyl)-3-propylquinazolin-4(3H)-one]
> 5 µM | > 1 µM | CCC[C@@H](c1nc2ccc(Br)cc2c(=O)n1CC)N1CCNC[C@H](O)C1 [Example 115, 6-bromo-3-ethyl-2-((S)-1-((S)-6-hydroxy-1,4-diazepan-1-yl)butyl)quinazolin-4(3H)-one]

Ki [1] | Ki [2] | Compound
0.5 to 5 µM | < 0.5 µM | CCC[C@H](c1nc2ccc(F)cc2c(=O)n1Cc1ccoc1)N1CCCN(CC)CC1 [Example 228, (R)-2-(1-(4-ethyl-1,4-diazepan-1-yl)butyl)-6-fluoro-3-(furan-3-ylmethyl)quinazolin-4(3H)-one]
> 5 µM | > 1 µM | CCCC(c1nc2ccc(Br)c(C)c2c(=O)n1CC)N1CCCNCC1 (stereo not shown) [Example 41, 2-(1-(1,4-diazepan-1-yl)butyl)-6-bromo-3-ethyl-5-methylquinazolin-4(3H)-one]
> 5 µM | < 0.5 µM | CCC[C@@H](c1nc2ccc(Br)cc2c(=O)n1CC)N1CCCN(CC)CC1 [Example 154, (S)-6-bromo-3-ethyl-2-(1-(4-ethyl-1,4-diazepan-1-yl)butyl)quinazolin-4(3H)-one]
< 0.5 µM | < 0.5 µM | CCC[C@H](c1nc2ccc(Br)cc2c(=O)n1CC)N1CCCN(CC)CC1 [Example 153, (R)-6-Bromo-3-ethyl-2-(1-(4-ethyl-1,4-diazepan-1-yl)butyl)quinazolin-4(3H)-one]
> 5 µM | > 1 µM | CCC[C@@H](c1nc2cc(Cl)c(Cl)cc2c(=O)n1CC)N1CCNC[C@@H](C)C1 [Example 112, 6,7-dichloro-3-ethyl-2-((S)-1-((R)-6-methyl-1,4-diazepan-1-yl)butyl)quinazolin-4 (3H)-one]
< 0.5 µM | > 1 µM | CCC[C@H](c1nc2ncc(F)cc2c(=O)n1CC1CC1)N1CCN[C@H](C)CC1 [Example 196, 3-(cyclopropylmethyl)-6-fluoro-2-((R)-1-((R)-5-methyl-1,4-diazepan-1-yl)butyl)pyrido[2,3-d]pyrimidin-4(3H)-one]
> 5 µM | > 1 µM | CCC[C@@H](c1nc2cc(F)c(Br)cc2c(=O)n1CC)N1CCN(C)C[C@H](C)C1 [Example 128, 6-bromo-2-((S)-1-((S)-4,6-dimethyl-1,4-diazepan-1-yl)butyl)-3-ethyl-7-fluoroquinazolin-4(3H)-one]
0.5 to 5 µM | < 0.5 µM | CCCC(c1nc2ccc(F)c(F)c2c(=O)n1CC)N1CCCN(CC)CC1 (stereo not shown) [Example 78, 3-ethyl-2-(1-(4-ethyl-1,4-diazepan-1-yl)butyl)-5,6-difluoroquinazolin-4(3H)-one]
> 5 µM | > 1 µM | CCC[C@@H](c1nc2ncc(Br)cc2c(=O)n1CC)N1CCNC[C@H](C)C1 [Example 200, 6-bromo-3-ethyl-2-((S)-1-((S)-6-methyl-1,4-diazepan-1-yl)butyl)pyrido[2,3-d]pyrimidin-4(3H)-one]
< 0.5 µM | < 0.5 µM | CCC[C@H](c1nc2cc(F)c(F)cc2c(=O)n1CC)N1CCN[C@@H](C)CC1 [Example 242, 3-ethyl-6,7-difluoro-2-((R)-1-((S)-5-methyl-1,4-diazepan-1-yl)butyl)quinazolin-4(3H)-one]
0.5 to 5 µM | < 0.5 µM | CCCC(c1nc2ccc(Br)cc2c(=O)n1C)N1CCCN(C)CC1 (stereo not shown) [Example 84, 6-bromo-3-methyl-2-(1-(4-methyl-1,4-diazepan-1-yl)butyl)quinazolin-4(3H)-one]
< 0.5 µM | < 0.5 µM | CCC[C@H](c1nc2ccc(F)c(F)c2c(=O)n1CC)N1CCCN(C)CC1 [Example 233, (R)-3-ethyl-5,6-difluoro-2-(1-(4-methyl-1,4-diazepan-1-yl)butyl)quinazolin-4(3H)-one]
< 0.5 µM | < 0.5 µM | CCC[C@H](c1nc2cc(F)c(Cl)cc2c(=O)n1CC)N1CCN(C)C[C@H](C)C1 [Example 135, 6-Chloro-2-((R)-1-((S)-4,6-dimethyl-1,4-diazepan-1-yl)butyl)-3-ethyl-7-fluoroquinazolin-4(3H)-one]
0.5 to 5 µM | < 0.5 µM | CCCC(c1nc2ccc(Br)c(F)c2c(=O)n1CC)N1CCCN(CC)CC1 (stereo not shown) [Example 52, 6-bromo-3-ethyl-2-(1-(4-ethyl-1,4-diazepan-1-yl)butyl)-5-fluoroquinazolin-4(3H)-one]
< 0.5 µM | < 0.5 µM | CCCC(c1nc2cc(F)c(Br)cc2c(=O)n1CCC)N1CCCN(C)CC1 (stereo not shown) [Example 26, 6-bromo-7-fluoro-2-(1-(4-methyl-1,4-diazepan-1-yl)butyl)-3-propylquinazolin-4(3H)-one]
> 5 µM | 0.5 to 1 µM | CCC[C@H](c1nc2ccc(F)cc2c(=O)n1CC)N1CCCNC(C)(C)C1 [Example 253]
